# From US20240376126A1, “PRMT5 INHIBITOR AND THE USE THEREOF” (CYTOSINLAB THERAPEUTICS CO., LTD., priority 2022, published 2024)
# Read-outs that look alike come from different tables or passages of the source.
# Key:
# HCT116 MTAP WT cells = assay: Proliferation inhibition of HCT116 cells in vitro (CellTiter Glo, 6 days); format: cell-based; conditions: read-out: Cell proliferation inhibition rate HCT116 MTAP WT IC50 (nm)
# From the text: (§1) Biological Test Example 2 Proliferation Inhibition of HCT116 and HCT116 MTAP-KO Cells In Vitro
# (§2) HCT116 cell line was purchased from the Chinese Academy of Sciences Cell Bank, and the MTAP gene was knocked out by CRISPR/Cas9 technology to obtain HCT116-MTAP-KO cell line.
# (§3) McCoy's 5A medium (Gibco, catalog No. 16600082), fetal bovine serum (Gibco, catalog No. 10099141C), penicillin-streptomycin double antibody (Gibco, catalog No. 15140122), pancreatic enzyme (Gibco, catalog No. 25200056), CellTiter Glo assay kit (Promega, catalog No. G7572), 384-well transparent flat-bottomed black walled cell culture plate (Corning, catalog No. 3764), ultra micro sampler (Tecan, catalog No. D300e), Multimode reader (Biotek, catalog No. SynergyHTX)
# (§4) • 1. Cell culture: HCT116 and HCT116-MTAP-KO cells were cultured in McCoy'5A medium+10% fetal bovine serum+1% penicillin-streptomycin double antibody; to ensure that they were always in the logarithmic growth phase and the cell viability greater than 95%. • 2. Compound concentration gradient preparation: The compound to be tested was added to a 384-well plate using an ultra micro sampler, starting from 30 μM (HCT116 cells) or 3 μM (HCT116-MTAP-KO cells), and diluted with DMSO at 3 times for a total of 9 concentrations and set up three duplicate wells. • 3. Treatment of cells with compounds: Trypsin-digested HCT116 or HCT116-MTAP-KO cell suspension was added to the 384-well plates spotted with the compounds to be tested at 40 μL per well, i.e., 100 cells per well, and the final concentration of DMSO was 0.4%. The cell culture plate was incubated at 37° C. in a 5% CO2 incubator for 6 days. • 4. Detection: 20 μL of CellTiter Glo reagent was added to each well of the cell culture plate and incubated at room temperature for 30 minutes. A multimode reader was used to detect the luminescence signal at […]. • 5. Data analysis:
# (§5) The data was fitted with GraphPad Prism 8.0 software using a four parameter inhibitor-reaction model to obtain the […] (half inhibitory concentration) of the test compounds.
# (§6) The first column represents cell proliferation inhibition rate HCT116 MTAP WT IC50 (nm), and the second column represents cell proliferation inhibition rate HCT116-MTAP null IC50 (nm): […]
# [1] = system: HCT116-MTAP-KO (MTAP null) cells; assay: Proliferation inhibition of HCT116 MTAP-KO cells in vitro (CellTiter Glo, 6 days); format: cell-based; conditions: read-out: Cell proliferation inhibition rate HCT116-MTAP null IC50 (nm)
# From the text: as §1, §2, §3, §4, §5, §6
"IC50 (HCT116 MTAP WT cells; Homo sapiens, HCT-116, 144 h) [µM]","IC50 ([1]; HCT116-MTAP null, 144 h) [µM]",IC50 (HCT116 MTAP WT cells) [µM],IC50 [1] [µM],Compound
1 to 10,0.1 to 1,–,–,CC1OCc2c1c(N)nc1ccc(C(=O)N(Cc3cn4ccccc4n3)C34CC(C3)C4)cc21 (stereo not shown) [Example 56]
1 to 10,0.1 to 1,–,–,CC1OCc2c1c(N)nc1ccc(C(=O)N(Cc3cn4ccccc4n3)c3cnn(C)c3)cc21 (stereo not shown) [Example 57]
0.1 to 1,< 0.1,–,–,CC(C)CN(Cc1nc2ccccn2c1F)C(=O)c1cc2c(cc1F)nc(N)c1cnn(C)c12 [Example 58]
1 to 10,< 0.1,–,–,Cn1ncc2c(N)nc3cc(F)c(C(=O)N(Cc4cn5ccccc5n4)C45CC(F)(C4)C5)cc3c21 [Example 59]
1 to 10,< 0.1,–,–,COCCN(C(=O)c1cc2c(cc1F)nc(N)c1cnn(C)c12)C(C)c1cn2ccccc2n1 (stereo not shown) [Example 60]
1 to 10,< 0.1,–,–,Cn1ncc2c(N)nc3cc(F)c(C(=O)N(Cc4cn5ccccc5n4)C45CC(C#N)(C4)C5)cc3c21 [Example 61]
1 to 10,< 0.1,–,–,Cn1ncc2c(N)nc3cc(F)c(C(=O)N(Cc4cn5ccccc5n4)C45CC(C(F)(F)F)(C4)C5)cc3c21 [Example 62]
1 to 10,< 0.1,–,–,C[C@@H]1COC[C@H](c2cn3ccccc3n2)N1C(=O)c1ccc2nc(N)c3cnn(C)c3c2c1 [Example 63]
1 to 10,0.1 to 1,–,–,CC1OCc2c1c(N)nc1ccc(C(=O)N3[C@H](C)COC[C@@H]3c3cn4ccccc4n3)cc21 (stereo partly shown) [Example 64]
1 to 10,0.1 to 1,–,–,CC1OCc2c1c(N)nc1ccc(C(=O)N(Cc3cn4ccccc4n3)C(C)C(F)(F)F)cc21 (stereo not shown) [Example 65]
1 to 10,0.1 to 1,–,–,CC1OCc2c1c(N)nc1ccc(C(=O)N(Cc3cn4ccccc4n3)CC(F)F)cc21 (stereo not shown) [Example 66]
1 to 10,0.1 to 1,–,–,CC1OCc2c1c(N)nc1ccc(C(=O)N3C(C)COCC3c3cn4cc(C(F)(F)F)ccc4n3)cc21 (stereo not shown) [Example 67]
1 to 10,< 0.1,–,–,Cn1cc(N(Cc2cn3cc(C(F)(F)F)ccc3n2)C(=O)c2ccc3nc(N)c4c(c3c2)COC4)cn1 [Example 68]
1 to 10,0.1 to 1,–,–,CCN(Cc1cn2ccccc2n1)C(=O)c1cc2c(cn1)nc(N)c1cnc(C)n12 [Example 69]
1 to 10,< 0.1,–,–,CC1OCc2c1c(N)nc1ccc(C(=O)N(Cc3nc4ccc(C(F)(F)F)cn4c3F)c3cnn(C)c3)cc21 (stereo not shown) [Example 71]
1 to 10,1 to 10,–,–,C[C@H]1OCc2c1c(N)nc1ccc(C(=O)N(Cc3cn4c(C(F)(F)F)cccc4n3)c3cnn(C)c3)cc21 [Example 72]
1 to 10,< 0.1,–,–,C[C@@H]1OCc2c1c(N)nc1ccc(C(=O)N(Cc3cn4c(C(F)(F)F)cccc4n3)c3cnn(C)c3)cc21 [Example 73]
1 to 10,0.1 to 1,–,–,CC1OCc2c1c(N)nc1ccc(C(=O)N(Cc3cn4c(C(F)(F)F)cccc4n3)c3cnn(C)c3)cc21 (stereo not shown) [Example 74]
1 to 10,< 0.1,–,–,Cc1ccc2nc(CN(C(=O)c3ccc4nc(N)c5c(c4c3)COC5C)c3cnn(C)c3)cn2c1 (stereo not shown) [Example 75]
1 to 10,< 0.1,–,–,CC1OCc2c1c(N)nc1ccc(C(=O)N(Cc3cn4cc(C(F)F)ccc4n3)c3cnn(C)c3)cc21 (stereo not shown) [Example 78]
1 to 10,< 0.1,–,–,Cn1cc(N(Cc2cn3cc(C(F)(F)F)ccc3n2)C(=O)c2cc3c4c(c(N)nc3cc2F)COC4)cn1 [Example 80]
1 to 10,< 0.1,–,–,Cn1cc(N(Cc2cn3ccccc3n2)C(=O)c2cc3c4c(c(N)nc3cc2F)COC4)cn1 [Example 82]
0.1 to 1,< 0.1,–,–,Cn1cc(N(Cc2nc3ccccn3c2F)C(=O)c2cc3c4c(c(N)nc3cc2F)COC4)cn1 [Example 83]
1 to 10,< 0.1,–,–,Cn1cc(N(Cc2nc3ccc(C(F)(F)F)cn3c2F)C(=O)c2cc3c4c(c(N)nc3cc2F)COC4)cn1 [Example 84]
1 to 10,< 0.1,–,–,CCN(Cc1cn2cc(C(F)(F)F)ccc2n1)C(=O)c1cc2c3c(c(N)nc2cc1F)COC3 [Example 85]

"IC50 (HCT116 MTAP WT cells; Homo sapiens, HCT-116, 144 h) [µM]","IC50 ([1]; HCT116-MTAP null, 144 h) [µM]",IC50 (HCT116 MTAP WT cells) [µM],IC50 [1] [µM],Compound
1 to 10,< 0.1,–,–,CCN(Cc1cn2ccccc2n1)C(=O)c1cc2c3c(c(N)nc2cc1F)COC3 [Example 86]
1 to 10,< 0.1,–,–,Cc1ccc2nc(CN(C(=O)c3cc4c5c(c(N)nc4cc3F)COC5)c3cnn(C)c3)cn2c1 [Example 87]
1 to 10,< 0.1,–,–,Cn1ncc(N(Cc2cn3cc(C(F)(F)F)ccc3n2)C(=O)c2cc3c4c(c(N)nc3cc2F)COC4)n1 [Example 88]
1 to 10,< 0.1,–,–,Cc1nn(C)cc1N(Cc1cn2cc(C(F)(F)F)ccc2n1)C(=O)c1ccc2nc(N)c3c(c2c1)COC3 [Example 89]
0.1 to 1,< 0.1,–,–,Cc1nn(C)cc1N(Cc1cn2cc(C(F)(F)F)ccc2n1)C(=O)c1ccc2nc(N)c3c(c2c1)CO[C@H]3C [Example 90]
1 to 10,< 0.1,–,–,Cn1cc(N(Cc2nc3ccc(C(F)(F)F)cn3c2F)C(=O)c2ccc3nc(N)c4c(c3c2)COC4)cn1 [Example 91]
1 to 10,< 0.1,–,–,Cn1cc(N(Cc2nc3ccccn3c2F)C(=O)c2ccc3nc(N)c4c(c3c2)COC4)cn1 [Example 92]
1 to 10,< 0.1,–,–,Cc1nn(C)cc1N(Cc1nc2ccc(C(F)(F)F)cn2c1F)C(=O)c1ccc2nc(N)c3c(c2c1)COC3 [Example 93]
1 to 10,0.1 to 1,–,–,Nc1nc2cc(F)c(C(=O)N(Cc3cn4cc(C(F)(F)F)ccc4n3)C3CCOC3)cc2c2c1COC2 (stereo not shown) [Example 94]
1 to 10,< 0.1,–,–,CCn1cc(N(Cc2cn3cc(C(F)(F)F)ccc3n2)C(=O)c2ccc3nc(N)c4c(c3c2)COC4)c(C)n1 [Example 95]
1 to 10,< 0.1,–,–,Cc1nn(C)cc1N(Cc1nc2ccccn2c1F)C(=O)c1ccc2nc(N)c3c(c2c1)COC3 [Example 96]
1 to 10,< 0.1,–,–,CCc1nn(C)cc1N(Cc1cn2cc(C(F)(F)F)ccc2n1)C(=O)c1ccc2nc(N)c3c(c2c1)COC3 [Example 97]
1 to 10,< 0.1,–,–,Cc1cc(N(Cc2cn3cc(C(F)(F)F)ccc3n2)C(=O)c2ccc3nc(N)c4c(c3c2)COC4)n(C)n1 [Example 98]
1 to 10,< 0.1,–,–,Cc1ncccc1N(Cc1cn2cc(C(F)(F)F)ccc2n1)C(=O)c1ccc2nc(N)c3c(c2c1)COC3 [Example 99]
1 to 10,< 0.1,–,–,Cc1ncccc1N(Cc1cn2cc(C(F)(F)F)ccc2n1)C(=O)c1ccc2nc(N)c3c(c2c1)COC3C (stereo not shown) [Example 100]
1 to 10,< 0.1,–,–,CCn1cc(N(Cc2nc3ccc(C(F)(F)F)cn3c2F)C(=O)c2ccc3nc(N)c4c(c3c2)COC4)c(C)n1 [Example 101]
1 to 10,0.1 to 1,–,–,Cc1cc2cc(C(=O)N(Cc3cn4cc(C(F)(F)F)ccc4n3)c3cn(C)nc3C)ccc2nc1N [Example 103]
–,–,0.1 to 1,< 0.1,Cc1nn(C)cc1N(Cc1cn2cc(C(F)(F)F)ccc2n1)C(=O)c1cc2c(cc1F)nc(N)c1cnn(C)c12 [Example 104]
1 to 10,< 0.1,–,–,Cc1nn(C)cc1N(Cc1cn2cc(C(F)(F)F)ccc2n1)C(=O)c1ccc2nc(N)c3c(cnn3C)c2c1 [Example 105]
1 to 10,< 0.1,–,–,Cn1nccc1N(Cc1cn2cc(C(F)(F)F)ccc2n1)C(=O)c1ccc2nc(N)c3c(c2c1)COC3 [Example 107]
1 to 10,< 0.1,–,–,Cc1cc(NC(=O)C(=O)N(Cc2cn3cc(C(F)(F)F)ccc3n2)c2cn(C)nc2C)cnc1N [Example 108]
1 to 10,< 0.1,–,–,Cc1nn(C)cc1N(Cc1cn2cc(C(F)(F)F)ccc2n1)C(=O)c1ccc2nc(N)c3c(c2c1)OCC3 [Example 109]
–,–,< 0.1,< 0.1,Cn1nccc1N(Cc1cn2cc(C(F)(F)F)ccc2n1)C(=O)c1cc2c(cc1F)nc(N)c1cnn(C)c12 [Example 111]
0.1 to 1,< 0.1,–,–,Cn1nccc1N(Cc1cn2cc(C(F)(F)F)ccc2n1)C(=O)c1ccc2nc(N)c3c(c2c1)OCC3 [Example 112]
1 to 10,0.1 to 1,–,–,Cn1cc(N(Cc2cn3cc(C(F)(F)F)ccc3n2)C(=O)c2ccc3nc(N)c4c(c3c2)OCC4)cn1 [Example 113]
